Measurements reported in patent publication US7598234B2, “Steroid derived antibiotics” (Brigham Young University, priority 1998, dated 2009).
Converted amounts (≈) assume the structure as drawn.

Tests used:
E. coli (ATCC 10798) [1] = assay: MIC and MBC measurement with E. coli (ATCC 10798); format: cell-based, Escherichia coli; conditions: Table 1, E. coli (ATCC 10798)
How it was run: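 Cholic acid derivatives, dissolved as HCl salts in sterile water, were tested in TSB tubes over a concentration series and incubated without agitation for 24 hours at 37° C. Absorption at 760 nm marked growth, while surviving CFU in turbidity-free tubes, plated on TSA overnight, were compared with inoculum counts.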

E. coli (ATCC 10798) [2] = assay: Sensitization to erythromycin (concentration lowering the MIC of erythromycin), E. coli (ATCC 10798); format: cell-based, Escherichia coli; conditions: Table 2, E. coli (ATCC 10798)
Gram-negative bacteria [3] = assay: MIC of ester and amide side chain compounds (Table 14); format: cell-based; conditions: strain not given
Procedure: (§1) Aliquots of 1 mL of the suspension were added to test tubes containing 1 mL TSB and incrementally varied concentrations of cholic acid derivatives and/or erythromycin or novobiocin. In the sensitization experiments, erythromycin or novobiocin were added 15 minutes later than the cholic acid derivatives. The samples were subjected to stationary incubation at 37° C. for 24 hours. Sample turbidity was determined by measuring absorption at 760 nm (HP 8453 UV-Visible Chemstation, Hewlett Packard). Additionally, an alliquot from each of the samples showing no measurable turbidity was subcultured on TSA plates (alliquots were diluted to provide fewer than 300 CFU). Colonies that grew on the subculture after overnight incubation were counted and the number of CFU/mL in the samples were calculated. The calculated values were compared to the number of CFU/mL in the original inoculum.
(§2) Ester and amide side chains: Additional compounds, for example, compounds with amide and ester side chains, were tested.

Gram-negative bacteria [4] = assay: Sensitization to erythromycin, ester and amide side chain compounds (Table 14); format: cell-based; conditions: Table 14; strain not given
Procedure: as §1
(§3) Ability to permeabilize outer membrane: Compounds 11, 106, and 108-114 (FIG. 1) were tested for antibiotic activity. They were also tested for the ability to permeabilize the outer membrane of Gram-negative bacteria, causing sensitization to hydrophobic antibiotics that cannot cross the outer membrane. The permeabilization of the outer membrane was measured using erythromycin and novobiocin.
as §2

Gram-negative bacteria [5] = assay: Sensitization to novobiocin, ester and amide side chain compounds (Table 14); format: cell-based; conditions: strain not given
Procedure: as §1, §3, §2

E. coli (ATCC 25922) [6] = assay: MIC and MBC measurement with E. coli (ATCC 25922); format: cell-based, Escherichia coli; conditions: ATCC25922; Table 10; Escherichia coli ATCC 25922; read-out: MBC
How it was run: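 Growth inhibition read as absorbance at 760 nm after 24 h stationary culture at 37 °C in tryptic soy broth containing varied compound levels. Turbidity-free samples were plated on TSA overnight and CFU/mL compared with the starting inoculum for bactericidal endpoint; antibiotic co-additions followed compound by 15 min.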

E. coli (ATCC 25922) [7] = assay: Sensitization to erythromycin, E. coli (ATCC 25922); format: cell-based, Escherichia coli; conditions: Table 11; Escherichia coli ATCC 25922; erythromycin (by order) at 0.5, 1.0 or 3.0 μg/mL
Procedure: FICs can be performed by checkerboard titrations of compounds in one dimension of a microtiter plate, and of antibiotics in the other dimension, for example. The FIC is calculated by looking at the impact of one antibiotic on the MIC of the other and vice versa. […] Preferably, an FIC of less than 0.5 is obtained for synergism. As used herein, FIC can be determined as follows:
as §1
Concentrations of 0.5, 1.0 or 3.0 μg/mL of these antibiotics were used, and the concentrations of the cholic acid derivatives required to inhibit bacterial growth of Gram-negative strains were determined.
(§4) Minimum inhibition concentrations (MIC) and minimum hemolytic concentrations (MHC) were measured as described in Li et al., Antimicrob. Agents. Chemother., 1999, 43, 1347.

[8] = test system: Pseudomonas aeruginosa (ATCC 27853); assay: Sensitization to erythromycin, Pseudomonas aeruginosa (ATCC 27853); format: cell-based
How it was run: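 Sensitization measured by the cholic acid derivative concentration inhibiting growth when combined with 0.5, 1.0 or 3.0 μg/mL erythromycin or novobiocin, antibiotic added 15 min after derivative. Incubation 24 h at 37 °C without shaking in TSB; growth by absorbance at 760 nm with CFU plating of non-turbid tubes; synergy expressed as FIC.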

[9] = test system: Pseudomonas aeruginosa (ATCC 27853); assay: Sensitization to novobiocin, Pseudomonas aeruginosa (ATCC 27853); format: cell-based; conditions: Table 12; Pseudomonas aeruginosa ATCC 27853; novobiocin (by order) at 0.5, 1.0 or 3.0 μg/mL
Procedure: (§5) Alternatively, “fractional inhibitory concentration (FIC)” is also useful for determination of synergy between the compounds of the invention, or the compounds in combination with known antibiotics. FICs can be performed by checkerboard titrations of compounds in one dimension of a microtiter plate, and of antibiotics in the other dimension, for example. The FIC is calculated by looking at the impact of one antibiotic on the MIC of the other and vice versa. […] Preferably, an FIC of less than 0.5 is obtained for synergism. As used herein, FIC can be determined as follows:
as §1, with “inoculum. […]” for “inoculum.”
(§6) To measure permeabilization, the FIC values for compounds 1, 2, 5, 106, 10, 112, 133, and 134 with erythromycin, novobiocin, and rifampicin were determined. Concentrations of 0.5, 1.0 or 3.0 μg/mL of these antibiotics were used, and the concentrations of the cholic acid derivatives required to inhibit bacterial growth of Gram-negative strains were determined.

[10] = test system: Klebsiella pneumonia ATCC 13883; assay: MIC and MBC measurement with Klebsiella pneumoniae ATCC 13883; format: cell-based; conditions: Klebsiella pneumoniae, ATCC13883, Table 10, read-out: MBC
From the text: (§7) General: Microorganisms. Reference strains were purchased from the American Type Culture Collection (Rockville, Md.) or Bactrol disks from Difeo Laboratories (Detroit, Mich.). The following specific ATCC strains were used: 10798 Escherichia coli, 25922 Escherichia coli, 13883 Klebsiella pneumoniae, 27853 Pseudomonas aeruginosa, 14028 Salmonella typhimurium, 29212 Enterococcus faecalis, 25923 Staphylococcus aureus, 19615 Streptococcus pyogenes, and 90028 Candida albicans. Bacterial strains were maintained on Mueller-Hinton agar plates, and Candida albicans was maintained on Sabouraud Dextrose agar plates.
(§8) Tryptic soy broth (TSB) was made by dissolving 27.5 grams of tryptic soy broth without dextrose (DIFCO Laboratories) in 1 liter of deionized water and sterilizing at 121° C. for 15 minutes. Solid agar (TSA) plates were made by dissolving 6.4 grams of tryptic soy broth and 12 grams of agar (purified grade, Fischer Scientific) in 800 mL of deionized water and sterilizing at 121° C. for 20 minutes. Aliquots (20 mL) of the homogeneous solution were then poured in sterile plastic petri dishes (100×15 mm, Fisher Scientific). Solutions of compounds were made by dissolving the HCl salt of the respective compound into an appropriate amount of deionized and sterilized water followed by microfiltration.
as §1

[11] = test system: Salmonella typhimurium ATCC 14028; assay: MIC and MBC measurement with Salmonella typhimurium ATCC 14028; format: cell-based; conditions: Salmonella enterica, Table 10, read-out: MBC
From the text: as §7, §8, §1

[12] = test system: Staphylococcus aureus ATCC 25923; assay: MIC and MBC measurement with Staphylococcus aureus ATCC 25923; format: cell-based; conditions: ATCC25923; Table 10; Staphylococcus aureus ATCC 25923; read-out: MIC
From the text: as §7, §8
as §1, with “inoculum. […]” for “inoculum.”

[13] = Procedure: as §4
[14] = test system: Klebsiella pneumonia ATCC 13883; assay: Growth inhibition and FIC with novobiocin, Klebsiella pneumoniae ATCC 13883; format: cell-based; conditions: Table 12, novobiocin (by order) at 0.5, 1.0 or 3.0 μg/mL
Procedure: as §5, §1, §6

[15] = test system: Salmonella typhimurium ATCC 14028; assay: Growth inhibition and FIC with novobiocin, Salmonella typhimurium ATCC 14028; format: cell-based; conditions: Table 12, novobiocin (by order) at 0.5, 1.0 or 3.0 μg/mL
Procedure: as §5, §1, §6

[16] = test system: Escherichia coli ATCC 25922; assay: Growth inhibition and FIC with rifampicin, Escherichia coli ATCC 25922; format: cell-based; conditions: Table 13, rifampicin (by order) at 0.5, 1.0 or 3.0 μg/mL
Procedure: as §5, §1, §6

[17] = test system: Klebsiella pneumonia ATCC 13883; assay: Growth inhibition and FIC with rifampicin, Klebsiella pneumoniae ATCC 13883; format: cell-based
Procedure: as §5, §1, §6

[18] = test system: Pseudomonas aeruginosa ATCC 27853; assay: Growth inhibition and FIC with rifampicin, Pseudomonas aeruginosa ATCC 27853; format: cell-based; conditions: Table 13; Pseudomonas aeruginosa ATCC 27853^b; rifampicin (by order) at 0.5, 1.0 or 3.0 μg/mL
Procedure: as §5, §1, §6

[19] = test system: Salmonella typhimurium ATCC 14028; assay: Growth inhibition and FIC with rifampicin, Salmonella typhimurium ATCC 14028; format: cell-based; conditions: Table 13; Salmonella typhimurium ATCC 14028^b; rifampicin (by order) at 0.5, 1.0 or 3.0 μg/mL
Procedure: as §5, §1, §6

Row | Compound | MIC: concentration required to lower the MIC of erythromycin from 70 μg/mL to 1 μg/mL (E. coli (ATCC 10798) [2]) [µg/mL] | MIC (Gram-negative bacteria [3]) [µg/mL] | a: concentration of cholic acid derivatives required to lower MIC of erythromycin to 1 μg/ML (Gram-negative bacteria [4]) [µg/mL] | b: concentration of cholic acid derivatives required to lower MIC of novobiocin to 1 μg/ML (Gram-negative bacteria [5]) [µg/mL] | also measured
1 | C[C@H](CCCN(C)Cc1ccccc1)[C@H]1CC[C@H]2[C@@H]3[C@H](OC(=O)CN)C[C@@H]4C[C@H](OC(=O)CN)CC[C@]4(C)[C@H]3C[C@H](OC(=O)CN)[C@]12C.Cl.Cl.Cl.Cl [Compound 6] | 22 | 85 | 15 | 40 | MIC (E. coli (ATCC 10798) [1]): 65 µg/mL
2 | C[C@H](CCCN(C)Cc1ccccc1)[C@H]1CC[C@H]2[C@@H]3[C@H](OC(=O)CCN)C[C@@H]4C[C@H](OC(=O)CCN)CC[C@]4(C)[C@H]3C[C@H](OC(=O)CCN)[C@]12C.Cl.Cl.Cl.Cl [Compound 7] | 2.5 | 70 | 3 | 13 | MIC (E. coli (ATCC 10798) [1]): 28 µg/mL
3 | C[C@H](CCCO)[C@H]1CC[C@H]2[C@@H]3[C@H](OCCCN)C[C@@H]4C[C@H](OCCCN)CC[C@]4(C)[C@H]3C[C@H](OCCCN)[C@]12C [Compound 10] | 2 | – | – | – | MBC (E. coli (ATCC 10798) [1]; Escherichia coli, ATCC10798, read-out: MBC): 60 µg/mL (≈ 106 µM); MBC (with erythromycin) (E. coli (ATCC 10798) [2]; erythromycin sensitization): 50 µg/mL; MBC (E. coli (ATCC 25922) [6]): 40 µg/mL (≈ 70.7 µM); concentration required to inhibit bacterial growth with antibiotic (E. coli (ATCC 25922) [7]): 1.5 µg/mL; MIC: concentration required to lower the MIC of erythromycin from 240 μg/mL to 5 μg/mL ([8]; Table 7, P. aureginosa (ATCC 27853)): 7 µg/mL; concentration required to inhibit bacterial growth with antibiotic ([8]; Table 11, Pseudomonas aeruginosa ATCC 27853, erythromycin (by order) at 0.5, 1.0 or 3.0 μg/mL): 2.1 µg/mL; concentration required to inhibit bacterial growth with antibiotic [9]: 5.3 µg/mL; MBC [10]: 50 µg/mL (≈ 88.4 µM); MBC [11]: > 17 µg/mL; MIC [12]: 2 µg/mL (≈ 3.53 µM); MHC [13]: 100 µg/mL; concentration required to inhibit bacterial growth with antibiotic [14]: 0.73 µg/mL; concentration required to inhibit bacterial growth with antibiotic [15]: 1.8 µg/mL; concentration required to inhibit bacterial growth with antibiotic [16]: 0.70 µg/mL; FIC ([17]; Table 13, rifampicin (by order)): 0.030; concentration required to inhibit bacterial growth with antibiotic ([17]; Table 13, rifampicin (by order) at 0.5, 1.0 or 3.0 μg/mL): 0.16 µg/mL; concentration required to inhibit bacterial growth with antibiotic [18]: 0.84 µg/mL; concentration required to inhibit bacterial growth with antibiotic [19]: 0.55 µg/mL
4 | C[C@H](CCCO)[C@H]1CC[C@H]2[C@@H]3[C@H](NC(=O)CCN)C[C@@H]4C[C@H](NC(=O)CCN)CC[C@]4(C)[C@H]3C[C@H](NC(=O)CCN)[C@]12C [Compound 209b] | – | >100 | 40 | 75 | –
5 | CC(CCCO)C1CCC2C3C(NC(=O)C(N)CCCCN)CC4CC(NC(=O)C(N)CCCCN)CCC4(C)C3CC(NC(=O)C(N)CCCCN)C12C (centres unmarked) [Compound 209c] | – | 85 | 45 | 60 | –
6 | C[C@H](CCCN(C)Cc1ccccc1)[C@H]1CC[C@H]2[C@@H]3[C@H](NC(=O)CN)C[C@@H]4C[C@H](NC(=O)CN)CC[C@]4(C)[C@H]3C[C@H](NC(=O)CN)[C@]12C [Compound 210a] | – | 80 | 6 | 18 | –
7 | C[C@H](CCCN(C)Cc1ccccc1)[C@H]1CC[C@H]2[C@@H]3[C@H](NC(=O)CCN)C[C@@H]4C[C@H](NC(=O)CCN)CC[C@]4(C)[C@H]3C[C@H](NC(=O)CCN)[C@]12C [Compound 210b] | – | 100 | 15 | 40 | –
